Patent US20250198977A1, “DETECTION METHOD, DRIED ALGAE MANUFACTURING METHOD, DRIED ALGAE, AND DRIED ALGAE QUALITY MANAGEMENT METHOD” (priority 2022, published 2025)

Columns and labels:
[1] = system: L-dried matter of Cyanobium sp. NIES-981; test: Detection of chemical substances by delayed luminescence (DFI) of rehydrated L-dried matter; format: cell-based
Protocol: (§1) Various kinds of the L-dried matter obtained in the above-described cryo vial, and test water (water containing the chemical substances listed below at the concentrations (w/v) shown in Table 7) were prepared.
(§2) (metal mixed solution which was prepared by simulation based on formulation of a rock eluate from a core sample collected during a survey voyage of “Chikyu” by the Japan Agency for Marine-Earth Science and Technology; mainly containing lead and zinc (Yamagishi et al. Ecotoxicology (2018) 27:1303-1309)) • Copper • Zinc • Lead • Arsenic: in NIES-35, NIES-969, and NIES-2885, test water containing As(V) at 1 ppm (w/v) was also used for examination.
(§3) In a case of tests using freshwater algae, distilled water was used as the test water or control water, and in a case of tests using marine algae, filtered and sterilized seawater was used as the test water or control water.
(§4) Using a cuvette as a measurement container, 100 μL of the above-described cell suspension was dried to obtain 1 unit of the L-dried matter, and resuspended (rehydrated) in 3.5 mL of test water or control water.
(§5) After the rehydration, the L-dried matter and the test water or control water were rapidly and thoroughly mixed by pipetting to obtain a measurement sample (measurement object).
(§6) The sample was set in a weak luminescence measurement device (manufactured by Hamamatsu Photonics K.K., weak luminescence coefficient device, Type-7100). After exposure with excitation light from a light source attached to the device, delayed luminescence was measured immediately after a point of time of the rehydration (within 30 seconds), 15 minutes later, 30 minutes later, 60 minutes later, and 90 minutes later. The measurement time for each delayed luminescence was set to 10 seconds.
(§7) The sum of amounts of delayed luminescence (photon count) measured over 10 seconds was calculated and defined as the delayed fluorescence integral (DFI). In addition, for the sample after the rehydration, an absorbance at a wavelength of 600 nm with an optical path length of 1 cm was simultaneously measured. The DFI value per cell number of the L-dried matter was obtained by dividing the DFI by the value (DFI/OD600).

[2] = system: L-dried matter of Prochlorococcus sp. NIES-2885; test: as above; format: cell-based
Protocol: as §1, §2, §3, §4, §5, §6, §7

[3] = system: L-dried matter of Raphidocelis subcapitata NIES-35; test: as above; format: cell-based
Protocol: as §1, §2, §3, §4, §5, §6, §7

[4] = system: L-dried matter of Synechococcus sp. NIES-969; test: as above; format: cell-based
Protocol: as §1, §2, §3, §4, §5, §6, §7

[5] = system: L-dried matter of NIES-35; test: Detectable concentration by significant difference test, 15 min exposure of L-dried matter; format: cell-based, Raphidocelis subcapitata; details: exposed for 15 minutes
Source text: The concentration of HA corresponds to a 100 million-fold dilution of a commercially available stock solution.

[6] = system: L-dried matter of NIES-35; test: Detection test for ammonia nitrogen using L-dried matter; format: cell-based, Raphidocelis subcapitata; details: 60 minutes after addition; T-test, P<0.05, N=3
Protocol: To the L-dried matter of NIES-35 obtained in the cryo vial, a sample containing ammonia nitrogen at a concentration shown in FIG. 10 was added, and the delayed luminescence was measured 60 minutes after the addition.

[7] = system: L-dried matter of NIES-981 on filter; test: Detection test for DCMU using L-dried matter on a filter; format: cell-based, Cyanobium sp.; details: DCMU 1 μM; 5 minutes after exposure; *P<0.01, N=4
Protocol: 25 to 50 mL of a culture solution of NIES-981 was passed through a filter (Whatman GF/F glass fiber filter paper (diameter: 47 mm)) set in a filtration unit, capturing the cells on the filter. After the filtration, 1 mL of a protective medium (Table 6) was immediately added dropwise onto the filter. The filter on which the cells were captured was subjected to low-temperature vacuum drying for 1 to 2 hours using a low-temperature vacuum drying device (manufactured by Forest Technology Systems Ltd., FLEXI-DRY) capable of performing L-drying. Subsequent steps were performed in the same manner as in the preparation of the L-dried sample in the vial described above, thereby obtaining L-dried matter of algae on the filter (FIG. 8).
The L-dried matter obtained on the filter was exposed to seawater or test water containing DCMU at a concentration of 1 μM, and the delayed luminescence was measured 5 minutes after the exposure.

[8] = system: L-dried matter of NIES-35; test: Quality evaluation of stored L-dried matter with DCMU; format: cell-based, Raphidocelis subcapitata; details: DCMU 1 μM, after 15 minutes
Protocol: The L-dried matter stored at 4° C. for 2 weeks was compared with the L-dried matter stored at 37° C. for 2 weeks (accelerated deterioration product). In each case, DCMU was added to the L-dried matter of NIES-35 at the same time as the rehydration, such that the final concentration was 1 μM (DCMU addition group), and the delayed luminescence after 15 minutes was measured. In addition, the delayed luminescence was measured in the control (non-addition group) in which DCMU was not added, following the same procedure.

[9] = system: L-dried matter of NIES-981; test: Estimation of half-effective concentration (EC50) from delayed luminescence dose-response curve; format: cell-based, Cyanobium sp.; details: exposed simultaneously with rehydration; delayed luminescence after 15 minutes
Protocol: A dose-response curve of the L-dried matter with respect to a representative metal was created, and a half-effective concentration (EC50) was estimated. For the L-dried matter of NIES-981, zinc at 0 to 1 ppm (w/v) or Cy metal mixed solution at 0 to 10% (w/v) was exposed simultaneously with rehydration. After 15 minutes, the delayed luminescence was measured, and a dose-response curve was created.

[10] = system: same type of biocyanobacteria; test: 24-hour exposure test on the same type of cyanobacteria; format: cell-based; details: different bioassay method
Protocol: In a case where the half-effective concentration (EC50) was calculated, the zinc was 0.05 ppm (w/v) (FIG. 11) and the Cy metal mixed solution was 0.7% (w/v) (FIG. 12). Although it is not possible to simply compare the values because the values were obtained by different bioassay methods, the EC50 value during the zinc exposure was 0.07 ppm in a case where the 24-hour exposure test was performed on the same type of biocyanobacteria, and the EC50 value was similar to this value.

[11] = Zn^2+ 0.5 ppm, first value → later value
[12] = Pb^2+ 1 ppm, first value → later value

NO [HA, Hydroxylamine, reference compound]
comparison with control group (DFI value) ([1]; HA 50 μM): lower
comparison with control group (DFI value) ([2]; HA 50 μM): lower
comparison with control group (DFI value) ([3]; HA 50 μM): lower
comparison with control group (DFI value) ([4]; HA 50 μM): lower
detectable concentration (significant difference test) [5]: ≤ 0.0005 µM

ammonia nitrogen [NH4—N]
concentration at which a significant difference in the amount of delayed luminescence was confirmed [6]: ≥ 10 mg/L

CN(C)C(=O)Nc1ccc(Cl)c(Cl)c1 [DCMU, 3-(3,4-dichlorophenyl)-1,1-dimethylurea, reference compound]
comparison with control group (DFI value) ([1]; DCMU 1 μM): higher
comparison with control group (DFI value) ([2]; DCMU 1 μM, first value → later value): higher
comparison with control group (DFI value) ([3]; DCMU 1 μM): higher
comparison with control group (DFI value) ([4]; DCMU 1 μM): higher
amount of delayed luminescence, DCMU versus seawater [7]: significant difference
detectable concentration (significant difference test) [5]: ≤ 0.1 µM
detectable concentration (significant difference test) ([5]; conversion of 0.1 μM): approximately 0.02 ppm
delayed luminescence, DCMU-added group versus non-addition group ([8]; L-dried matter stored at 4° C. for 2 weeks): a difference was observed
delayed luminescence, DCMU-added group versus non-addition group ([8]; L-dried matter stored at 37° C. for 2 weeks): no significant difference was observed

[Cu+2] [Cu^2+, Copper]
comparison with control group (DFI value) ([1]; Cu^2+ 1 ppm): higher
comparison with control group (DFI value) ([2]; Cu^2+ 1 ppm): lower
comparison with control group (DFI value) ([3]; Cu^2+ 1 ppm): lower
comparison with control group (DFI value) ([4]; Cu^2+ 1 ppm): lower

[Zn+2] [Zn^2+, Zinc]
comparison with control group (DFI value) ([1]; Zn^2+ 0.5 ppm): higher
comparison with control group (DFI value) ([1]; Zn^2+ 1 ppm): higher
comparison with control group (DFI value) [2, 11]: lower
comparison with control group (DFI value) ([2]; Zn^2+ 1 ppm, first value → later value): lower
comparison with control group (DFI value) ([3]; Zn^2+ 0.5 ppm): higher
comparison with control group (DFI value) ([3]; Zn^2+ 1 ppm): higher
comparison with control group (DFI value) [4, 11]: lower
comparison with control group (DFI value) ([4]; Zn^2+ 1 ppm): lower
half-effective concentration (EC50) [9]: 0.05 ppm (w/v)
EC50 value during the zinc exposure [10]: 0.07 ppm

[Pb+2] [Pb^2+, Lead]
comparison with control group (DFI value) ([1]; Pb^2+ 1 ppm): higher
comparison with control group (DFI value) [2, 12]: lower
comparison with control group (DFI value) ([3]; Pb^2+ 1 ppm): higher
comparison with control group (DFI value) [4, 12]: lower
